Test results from US10662203B2, “Pyrido[2,3-b]indole compounds for the treatment and prophylaxis of bacterial infection” (Hoffmann-La Roche Inc., priority 2017, dated 2020).
Read-outs that look alike come from different tables or passages of the source.

Columns and labels:
Format in all cases: cell-based
[1] = Cytotoxicity assay (HepG2, CellTiter-Blue cell viability); settings: human
Experimental: The cytotoxicity of compounds of present invention was assessed by HepG2 assay. HepG2 cells (ATCC HB-8065™) were seeded into 96-well plates (1.2×10^4 cells per well) and treated with compounds for 3 days, cell viability was measured at day 3 post compound treatment using the CellTiter-Blue® Cell Viability Assay (Promega, Cat. No. G8082). 20 μL of Cell titer blue buffer were added to each well of the cells, which were incubated for 3 hours at 37° C., and the fluorescence value was measured by a plate reader (Molecular Device SpectraMax M2). The CC50 value of each compound is plotted with GraphPad Prism using four parameter logistic equation.

A. baumannii (ATCC17978) = test: 50% growth inhibitory concentration (IC50) determination assay; settings: Iso-Sensitest broth, 0.098 = detection limit
How it was run: (§1)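 Growth was tracked as optical density at 600 nm every 20 minutes for 16 h at 35±2° C, giving IC50 values. Inocula of ~5×10^5 CFU/mL in Iso-Sensitest broth faced two-fold compound dilutions spanning 50 to 0.097 μM final.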

S. aureus (ATCC29213) = test: as above; settings: Iso-Sensitest broth, 0.098 = detection limit
How it was run: as §1

[2] = system: K. pneumoniae (ATCC10031); test: as above; settings: Iso-Sensitest broth, 0.098 = detection limit
How it was run: as §1

[3] = HepG2 cells, 3 days treatment, "*": the detection limit, read-out: CC50
[4] = Acinetobacter baumannii, ATCC17978, A. baumannii ATCC17978

IC50 (A. baumannii (ATCC17978); [4]) | IC50 (S. aureus (ATCC29213); Staphylococcus aureus) | IC50 ([2]; Klebsiella pneumoniae) | SMILES | CC50 at 3 days [1, 3] | CC50 at 3 days [1] | IC50 (A. baumannii (ATCC17978); A. baumannii ATCC17978) | IC50 (S. aureus (ATCC29213)) | IC50 [2]
0.437 µM | < 0.098 µM | < 0.098 µM | CNc1cc(F)c(F)c2c1[nH]c1ncc(-c3cnc4c(c3)c(=O)c(C(=O)O)cn4CC3COCCN3)c(N(C)C)c12 (stereo not shown) [Example 1.03] | 38100 nM |  |  |  | 
0.847 µM |  |  | CNc1cc(F)c(F)c2c1[nH]c1ncc(-c3cnc4c(c3)c(=O)c(C(=O)O)cn4CC3CCCN3)c(N3CCOCC3)c12 (stereo not shown) [Example 1.11] | > 100000 nM |  |  |  | 
0.403 µM | < 0.098 µM | < 0.098 µM | CCNc1cc(F)cc2c1[nH]c1ncc(-c3cnc4c(c3)c(=O)c(C(=O)O)cn4CC)c(-n3cc(CN)c(C(F)(F)F)n3)c12 [Example 1.15] | > 100000 nM |  |  |  | 
0.569 µM | < 0.098 µM | < 0.098 µM | CNCCn1cc(C(=O)O)c(=O)c2cc(-c3cnc4[nH]c5c(NC)cc(F)c(F)c5c4c3N(C)C)cnc21 [Example 1.26] | 32500 nM |  |  |  | 
0.602 µM | < 0.098 µM |  | CNc1cc(F)c(F)c2c1[nH]c1ncc(-c3cnc4c(c3)c(=O)c(C(=O)O)cn4C)c(N3CCC(N)(C(F)(F)F)C3)c12 (stereo not shown) [Example 1.27] | 28200 nM |  |  |  | 
0.533 µM | < 0.098 µM | < 0.098 µM | CNc1cc(F)c(F)c2c1[nH]c1ncc(-c3cnc4c(c3)c(=O)c(C(=O)O)cn4C(C)CO)c(N3CCOCC3)c12 (stereo not shown) [Example 1.51] | > 100000 nM |  |  |  | 
0.643 µM | < 0.098 µM |  | CNc1cc(F)cc2c1[nH]c1ncc(-c3cnc4c(c3)c(=O)c(C(=O)O)cn4Cc3cnccn3)c(N3CCOCC3)c12 [Example 1.58] | > 100000 nM |  |  |  | 
0.132 µM | < 0.098 µM | < 0.098 µM | CNc1cc(F)c(F)c2c1[nH]c1ncc(-c3cnc4c(c3)c(=O)c(C(=O)O)cn4C)c(N3CCCC(CN(C)C)C3)c12 (stereo not shown) [Example 1.80] | 27500 nM |  |  |  | 
0.519 µM | < 0.098 µM | < 0.098 µM | CNc1cc(F)c(F)c2c1[nH]c1ncc(-c3cnc4c(c3)c(=O)c(C(=O)O)cn4C)c(N3C[C@H](C)[C@@H](O)C3)c12 [Example 1.83] | 26400 nM |  |  |  | 
0.586 µM | < 0.098 µM | < 0.098 µM | CNc1cc(F)cc2c1[nH]c1ncc(-c3cnc4c(c3)c(=O)c(C(=O)O)cn4NC)c(N3CC4[C@@H](C3)OCCN4C)c12 (stereo partly shown) [Example 1.113] | > 100000 nM |  |  |  | 
0.311 µM | < 0.098 µM | < 0.098 µM | CNc1cc(F)c(F)c2c1[nH]c1ncc(-c3cnc4c(c3)c(=O)c(C(=O)O)cn4C)c(N3CC[C@@H](O)C3)c12 [Example 1.151] | 37200 nM |  |  |  | 
0.171 µM | < 0.098 µM | < 0.098 µM | CNc1cc(F)c(F)c2c1[nH]c1ncc(-c3cnc4c(c3)c(=O)c(C(=O)O)cn4C)c(N3CC[C@H](O)C3)c12 [Example 1.163] | 28800 nM |  |  |  | 
0.472 µM | < 0.098 µM | < 0.098 µM | CNc1cc(F)c(F)c2c1[nH]c1ncc(-c3cnc4c(c3)c(=O)c(C(=O)O)cn4C)c(N3CC[C@H](CO)C3)c12 [Example 1.164] | 99300 nM |  |  |  | 
0.336 µM | < 0.098 µM | < 0.098 µM | CNc1cc(F)c(F)c2c1[nH]c1ncc(-c3cnc4c(c3)c(=O)c(C(=O)O)cn4C)c(N3CC[C@@H](CO)C3)c12 [Example 1.165] | > 100000 nM |  |  |  | 

The remaining lines, values behind:

SMILES | IC50 (A. baumannii (ATCC17978); [4]) | IC50 (S. aureus (ATCC29213); Staphylococcus aureus) | IC50 ([2]; Klebsiella pneumoniae) | CC50 at 3 days [1, 3] | CC50 at 3 days [1] | IC50 (A. baumannii (ATCC17978); A. baumannii ATCC17978) | IC50 (S. aureus (ATCC29213)) | IC50 [2]
CNc1cc(F)c(F)c2c1[nH]c1ncc(-c3cnc4c(c3)c(=O)c(C(=O)O)cn4C)c(N3CCC(F)(CN)C3)c12 (stereo not shown) [Example 1.23] | 0.507 µM | < 0.098 µM | < 0.098 µM | > 100000 nM |  |  |  | 
CNc1cc(F)cc2c1[nH]c1ncc(-c3cnc4c(c3)c(=O)c(C(=O)O)cn4C)c(N3CCC(O)(C(F)(F)F)C3)c12 (stereo not shown) [Example 1.25] |  |  |  | 62600 nM |  |  |  | 
CNc1cc(F)c(F)c2c1[nH]c1ncc(-c3cnc4c(c3)c(=O)c(C(=O)O)cn4CC3COCCN3)c(N3CCOCC3)c12 (stereo not shown) [Example 1.31] |  |  |  | 49000 nM |  |  |  | 
CNc1cc(F)c(F)c2c1[nH]c1ncc(-c3cnc4c(c3)c(=O)c(C(=O)O)cn4CC3CCN(C)CC3)c(N(C)C)c12 [Example 1.32] | 0.353 µM | < 0.098 µM | < 0.098 µM | 50100 nM |  |  |  | 
CCNc1cc(F)cc2c1[nH]c1ncc(-c3cnc4c(c3)c(=O)c(C(=O)O)cn4C3CCNC3)c(N3CCOCC3)c12 (stereo not shown) [Example 1.34] |  |  |  | > 100000 nM |  |  |  | 
CNc1cc(F)c(F)c2c1[nH]c1ncc(-c3cnc4c(c3)c(=O)c(C(=O)O)cn4CC(C)(C)O)c(N3CCOCC3)c12 [Example 1.35] | 0.663 µM | < 0.098 µM | < 0.098 µM | 76900 nM |  |  |  | 
CNc1cc(F)cc2c1[nH]c1ncc(-c3cnc4c(c3)c(=O)c(C(=O)O)cn4CC3COCCN3)c(NC)c12 (stereo not shown) [Example 1.37] |  |  |  | 55500 nM |  |  |  | 
CNc1cc(F)c(F)c2c1[nH]c1ncc(-c3cnc4c(c3)c(=O)c(C(=O)O)cn4CC3COCCN3)c(N(C)CCOC)c12 (stereo not shown) [Example 1.41] |  |  |  | 90200 nM |  |  |  | 
CNc1cc(F)c(F)c2c1[nH]c1ncc(-c3cnc4c(c3)c(=O)c(C(=O)O)cn4CC3CNCCO3)c(N3CCOCC3)c12 (stereo not shown) [Example 1.42] |  |  |  | > 100000 nM |  |  |  | 
CNc1cc(F)cc2c1[nH]c1ncc(-c3cnc4c(c3)c(=O)c(C(=O)O)cn4C(C)(CO)CO)c(N3CCOCC3)c12 [Example 1.44] |  |  |  | > 100000 nM |  |  |  | 
CNc1cc(F)cc2c1[nH]c1ncc(-c3cnc4c(c3)c(=O)c(C(=O)O)cn4C(C)CO)c(N3CCOCC3)c12 (stereo not shown) [Example 1.45] | 0.472 µM | < 0.098 µM | < 0.098 µM | > 100000 nM |  |  |  | 
CNc1cc(F)cc2c1[nH]c1ncc(-c3cnc4c(c3)c(=O)c(C(=O)O)cn4C)c(N3CCC(O)C3)c12 (stereo not shown) [Example 1.47] |  |  |  | > 100000 nM |  |  |  | 
CNc1cc(F)cc2c1[nH]c1ncc(-c3cnc4c(c3)c(=O)c(C(=O)O)cn4C)c(N3CCC(CO)C3)c12 (stereo not shown) [Example 1.54] | 0.461 µM | < 0.098 µM | < 0.098 µM | > 100000 nM |  |  |  | 
CNc1cc(F)cc2c1[nH]c1ncc(-c3cnc4c(c3)c(=O)c(C(=O)O)cn4C)c(N3CCC(C)(O)C3)c12 (stereo not shown) [Example 1.59] | 0.658 µM | < 0.098 µM | < 0.098 µM | 27900 nM |  |  |  | 
[2H]C([2H])([2H])Nc1cc(F)c(F)c2c1[nH]c1ncc(-c3cnc4c(c3)c(=O)c(C(=O)O)cn4C3CCNC3)c(N(C)C)c12 (stereo not shown) [Example 1.64] | 0.32 µM | < 0.098 µM | < 0.098 µM | > 100000 nM |  |  |  | 
CNc1c(Cl)c(F)cc2c1[nH]c1ncc(-c3cnc4c(c3)c(=O)c(C(=O)O)cn4C3CCNC3)c(N(C)C)c12 (stereo not shown) [Example 1.68] |  |  |  | 26500 nM |  |  |  | 
CNc1cc(F)c(F)c2c1[nH]c1ncc(-c3cnc4c(c3)c(=O)c(C(=O)O)cn4C)c(N3C[C@H](O)[C@@H](F)C3)c12 [Example 1.82] | 0.748 µM | < 0.098 µM | < 0.098 µM | > 100000 nM |  |  |  | 
CNc1cc(F)c(F)c2c1[nH]c1ncc(-c3cnc4c(c3)c(=O)c(C(=O)O)cn4C)c(N3CCC(C)(CO)C3)c12 (stereo not shown) [Example 1.84] | 0.326 µM | < 0.098 µM | 0.11 µM | 26800 nM |  |  |  | 
CNc1cc(F)c(F)c2c1[nH]c1ncc(-c3cnc4c(c3)c(=O)c(C(=O)O)cn4C3CCNC3)c(N3CCSCC3)c12 (stereo not shown) [Example 1.98] | 0.744 µM | 8.84 µM | 0.107 µM | > 100000 nM |  |  |  | 
CCn1cc(C(=O)O)c(=O)c2cc(-c3cnc4[nH]c5c(NC)cc(F)c(F)c5c4c3N3CC4CC(C3)O4)cnc21 [Example 1.128] |  |  |  |  | 27100 nM |  |  | 
CCNc1cc(F)c(F)c2c1[nH]c1ncc(-c3cnc4c(c3)c(=O)c(C(=O)O)cn4C3CCNC3)c(N(C)C)c12 (stereo not shown) [Example 1.140] | 0.631 µM | < 0.098 µM | < 0.098 µM | > 100000 nM |  |  |  | 
CNc1cc(F)c(F)c2c1[nH]c1ncc(-c3cnc4c(c3)c(=O)c(C(=O)O)cn4C3CCNC3)c(N(C)C)c12 (stereo not shown) [Example 1.150] |  |  |  | > 100000 nM |  | 0.273 µM | < 0.098 µM | < 0.098 µM
CNc1cc(F)c(F)c2c1[nH]c1ncc(-c3cnc4c(c3)c(=O)c(C(=O)O)cn4C)c(N3CCC4(CCCN(CCO)C4)C3)c12 (stereo not shown) [Example 1.194] | 0.199 µM | < 0.098 µM | < 0.098 µM | 72000 nM |  |  |  | 
CNc1cc(F)cc2c1[nH]c1ncc(-c3cnc4c(c3)c(=O)c(C(=O)O)cn4NC)c(N3CC[C@H]4CCN(C)C4C3)c12 (stereo partly shown) [Example 1.212] | 0.18 µM | 0.168 µM | < 0.098 µM | 33900 nM |  |  |  | 
CNc1cc(F)c(F)c2c1[nH]c1ncc(-c3cnc4c(c3)c(=O)c(C(=O)O)cn4NC)c(N3CC[C@H]4CN(C)C4C3)c12 (stereo partly shown) [Example 1.214] | 0.111 µM | < 0.098 µM | < 0.098 µM | 40800 nM |  |  |  | 
CNc1cc(F)c(F)c2c1[nH]c1ncc(-c3cnc4c(c3)c(=O)c(C(=O)O)cn4C)c(N3CCC4(CN(C)C4)C3)c12 [Example 1.228] |  |  |  | > 100000 nM |  |  |  | 
CNc1cc(F)c(F)c2c1[nH]c1ncc(-c3cnc4c(c3)c(=O)c(C(=O)O)cn4C3CCNC3)c(N3CCO[C@@H](C)C3)c12 (stereo partly shown) [Example 1.251] |  |  |  | > 100000 nM |  |  |  | 
